Laboratory results as given in article PMC7194099, “Transient expression and purification of β-caryophyllene synthase in Nicotiana benthamiana to produce β-caryophyllene in vitro” (PeerJ, 2020).

Molecular target: T1, AaCPS1 (β-caryophyllene synthase) (Artemisia annua, UniProt A0A059PYD5)
T1 construct: gene CPS; C-terminal 6xHis tag kept; transient expression in Nicotiana benthamiana (pEAQ-HT)
Assay: GC-MS of dodecane overlay
Format: biochemical
Conditions: 20 µM FPP, 20 mM MgCl2, 20 mM Tris-HCl pH 7.0, 10% glycerol, 2 mM DTT, 30 °C, 4 h; products β-caryophyllene (main) and α-humulene

T1 sequence (A0A059PYD5 1-550): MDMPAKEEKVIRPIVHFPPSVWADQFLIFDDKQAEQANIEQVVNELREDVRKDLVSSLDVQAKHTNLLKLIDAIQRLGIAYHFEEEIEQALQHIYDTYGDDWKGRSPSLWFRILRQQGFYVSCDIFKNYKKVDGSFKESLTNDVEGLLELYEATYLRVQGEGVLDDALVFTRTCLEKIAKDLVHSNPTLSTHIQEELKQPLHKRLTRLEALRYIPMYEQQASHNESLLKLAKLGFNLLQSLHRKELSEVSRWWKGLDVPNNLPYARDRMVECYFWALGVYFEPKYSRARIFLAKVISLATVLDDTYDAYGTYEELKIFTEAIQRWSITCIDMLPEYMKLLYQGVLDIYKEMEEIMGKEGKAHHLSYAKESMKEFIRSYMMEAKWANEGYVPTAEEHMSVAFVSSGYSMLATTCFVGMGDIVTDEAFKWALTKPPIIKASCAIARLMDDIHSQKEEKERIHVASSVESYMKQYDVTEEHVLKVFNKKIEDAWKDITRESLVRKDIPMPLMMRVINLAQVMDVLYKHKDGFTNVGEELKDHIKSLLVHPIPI

Q: `CC(C)=CCC/C(C)=C/CC/C(C)=C/COP(=O)(O)OP(=O)(O)O` [FPP, farnesyl diphosphate] was tested. Which “GC-MS of dodecane overlay” value did it give?
A: the purified AaCPS1 was incubated with the substrate FPP
